Assay: xn = mol fraction of the nth substance listed
Details: 100.5 kPa, Liquid; for viscosity: Capillary tube (Ostwald / Ubbelohde) method

CC(=O)OCc1ccccc1 [benzyl ethanoate] + CCO
Details	mass density, 288.15 K [kg/m3]	mass density, 298.15 K [kg/m3]	mass density, 308.15 K [kg/m3]	mass density, 318.15 K [kg/m3]	viscosity, 288.15 K [mPa·s]	viscosity, 298.15 K [mPa·s]	viscosity, 308.15 K [mPa·s]	viscosity, 318.15 K [mPa·s]
x1 = 0.05	825.52	816.73	807.83	798.78	1.317	1.089	0.91	0.766
x1 = 0.1	852.86	843.91	834.85	825.63	1.328	1.098	0.92	0.779
x1 = 0.15	876.56	867.47	858.28	848.94	1.357	1.123	0.942	0.796
x1 = 0.2	897.58	888.4	879.1	869.66	1.393	1.154	0.967	0.821
x1 = 0.25	916.18	906.92	897.57	888.07	1.439	1.191	0.998	0.846
x1 = 0.3	932.86	923.54	914.12	904.56	1.489	1.231	1.031	0.875
x1 = 0.35	947.82	938.44	928.98	919.38	1.543	1.274	1.067	0.906
x1 = 0.4	961.41	952	942.5	932.88	1.601	1.319	1.104	0.937
x1 = 0.45	973.74	964.29	954.76	945.12	1.661	1.365	1.142	0.971
x1 = 0.5	984.92	975.44	965.91	956.27	1.724	1.413	1.182	1.005
x1 = 0.55	995.2	985.72	976.17	966.52	1.789	1.465	1.223	1.04
x1 = 0.6	1004.68	995.21	985.66	976.03	1.859	1.518	1.268	1.077
x1 = 0.65	1013.4	1003.92	994.38	984.76	1.929	1.571	1.312	1.116
x1 = 0.7	1021.55	1012.1	1002.56	992.96	2.003	1.629	1.36	1.156
x1 = 0.75	1029.05	1019.58	1010.07	1000.51	2.081	1.691	1.409	1.197
x1 = 0.8	1036.05	1026.61	1017.13	1007.6	2.163	1.76	1.463	1.241
x1 = 0.85	1042.59	1033.16	1023.71	1014.22	2.249	1.83	1.524	1.289
x1 = 0.9	1048.78	1039.39	1029.98	1020.53	2.339	1.906	1.588	1.341
x1 = 0.95	1054.57	1045.21	1035.84	1026.44	2.44	1.987	1.652	1.392
x1 = 1	1060.11	1050.75	1041.39	1032.03	2.53	2.056	1.703	1.432

CCC(=O)OCc1ccccc1 [benzyl propanoate] + CCO
Details	mass density, 288.15 K [kg/m3]	mass density, 298.15 K [kg/m3]	mass density, 308.15 K [kg/m3]	mass density, 318.15 K [kg/m3]	viscosity, 288.15 K [mPa·s]	viscosity, 298.15 K [mPa·s]	viscosity, 308.15 K [mPa·s]	viscosity, 318.15 K [mPa·s]
x1 = 0.05	825.63	816.86	807.99	798.97	1.352	1.115	0.929	0.777
x1 = 0.1	852.43	843.5	834.48	825.3	1.379	1.14	0.949	0.795
x1 = 0.15	875.21	866.17	857.03	847.75	1.42	1.173	0.976	0.819
x1 = 0.2	894.95	885.82	876.6	867.25	1.466	1.211	1.009	0.848
x1 = 0.25	912.16	902.96	893.68	884.27	1.516	1.253	1.044	0.879
x1 = 0.3	927.38	918.13	908.8	899.34	1.571	1.298	1.084	0.913
x1 = 0.35	940.83	931.54	922.17	912.69	1.631	1.348	1.127	0.95
x1 = 0.4	952.87	943.55	934.16	924.65	1.694	1.401	1.171	0.988
x1 = 0.45	963.72	954.39	944.97	935.46	1.757	1.454	1.217	1.027
x1 = 0.5	973.57	964.22	954.79	945.28	1.821	1.509	1.263	1.067
x1 = 0.55	982.43	973.07	963.63	954.12	1.886	1.564	1.31	1.107
x1 = 0.6	990.54	981.17	971.74	962.24	1.952	1.621	1.358	1.148
x1 = 0.65	997.98	988.61	979.19	969.71	2.019	1.678	1.407	1.19
x1 = 0.7	1004.81	995.44	986.04	976.58	2.088	1.737	1.457	1.233
x1 = 0.75	1011.09	1001.73	992.35	982.93	2.158	1.797	1.509	1.278
x1 = 0.8	1016.98	1007.63	998.28	988.88	2.23	1.858	1.562	1.323
x1 = 0.85	1022.5	1013.15	1003.82	994.46	2.305	1.921	1.617	1.37
x1 = 0.9	1027.59	1018.25	1008.96	999.64	2.383	1.986	1.674	1.419
x1 = 0.95	1032.37	1023.06	1013.8	1004.53	2.463	2.053	1.729	1.468
x1 = 1	1036.86	1027.6	1018.38	1009.15	2.55	2.123	1.787	1.515

Source: the NIST ThermoML archive (doi:10.1021/je050402s)
